According to article PMC4880976, “Pharmacologic rationale for the NK1R antagonist, aprepitant as adjunctive therapy in HIV” (Journal of Translational Medicine, 2016):
Where no end group is shown, it is not given here.

Columns and labels:
[1] = cited from earlier work
[2] = Table 1, literature values, no reference given; cited from earlier work
HIV = conditions: Table 1, reference not given; cited from earlier work
5-HT2A receptor = molecular target: 5-HT2A receptor; set-up: method as in PMID 23702798, PMID 25113527; conditions: partial agonist; cited from earlier work
5-HT2C receptor = test system: 5-HT2C receptor; set-up: method as in PMID 23702798, PMID 25113527; conditions: cited from earlier work
serotonin reuptake = test system: serotonin reuptake; set-up: method as in PMID 23702798, PMID 25113527; conditions: at 10 μM; cited from earlier work
dopamine reuptake = test system: dopamine reuptake; set-up: method as in PMID 23702798, PMID 25113527; conditions: at 10 μM; cited from earlier work
[3] = test system: vesicular monoamine transporter 2 (VMAT2); set-up: method as in PMID 23702798, PMID 25113527; conditions: at 10 μM; cited from earlier work
GABAA receptor = test system: GABAA receptor; set-up: method as in PMID 23702798, PMID 25113527; conditions: cited from earlier work
[4] = test system: ATP-dependent K+ currents of mouse pancreatic B-cells; conditions: in the absence of albumin; Table 1, reference not given; read-out: concentration blocking currents half maximally; cited from earlier work
[5] = test system: PD-1 expression on CD3+CD4+ cells; experiment: PD-1 expression on CD4+ T-cells in PBMC, flow cytometry; type: cell-based, human
Procedure: (§1) For cytokine and PD-1 assessment experiments freshly isolated peripheral blood mononuclear cell (PBMC) purchased from the Human Immunology Core Facility of The University of Pennsylvania School of Medicine (Philadelphia, PA) were cultured in RPMI medium supplemented with 10 % FBS overnight. Some cultures were treated with SP (10 µM) aprepitant (10 µM) or DMSO (0.001 %, vehicle for aprepitant). Cytokine concentrations were measured in supernatants using multiplex assay 24 h after SP/aprepitant treatment (see below). For PD-1 expression SP and aprepitant were added at day 0 and PD-1 expression was monitored daily for up to 8 days using flow cytometry.
Fig. 6 Aprepitant blocks SP induced PD-1 expression on CD4+ T-cells. PBMC were treated for 7 days with SP and aprepitant as indicated. PD-1 expression was measured by flow cytometry on CD3+CD4+ cells and expressed as percentage of PD-1 positive cells. a Results from representative experiment are shown. First two columns show gaiting strategy. […] Median (spread): control 14.7 (11.1), SP treated 38.4 (60.6), SP + aprepitant treated 7.8 (6.0) TEXT PRINTED IN THE PICTURE: (a) SP: PD1+ 67.1 | (a) SP + aprepitant: PD1+ 9.53 DOUBTS OF THE COPYIST ABOUT THIS PICTURE: SP + aprepitant, PD1+ 9.53: the sign after PD1 looks like '+' or '−' because it touches the gate line / SP + aprepitant, 9.53: small print, so the digits 9, 5 and 3 are not fully certain / The rows 'no staining' (PD1+ 0.079) and 'control' (PD1+ 11.4) were left out because they are not substances

[6] = test system: CD163 cleavage in human monocytes; experiment: sCD163 release from human monocytes, ELISA; type: cell-based; conditions: SP, time- and dose-dependent, p < 0.001
Procedure: sCD163 was measured by ELISA (Trillium Diagnostics, Brewer, Maine, USA) according to manufacturer’s recommendations.
Fig. 7 SP induces cleavage of CD163 in monocytes. sCD163 was measured by ELISA in the supernatant of freshly isolated human monocytes treated with SP and aprepitant as indicated. a Time course of cells treated with varying doses of SP as indicated. *p < 0.001 control versus 5 and 10 μM of SP. b Cells were pre-incubated with aprepitant (10 μM) for 30 min and then treated with SP (5 μM) for 60 min. *p < 0.001 SP versus control, p = 0.004 SP versus SP + aprepitant. Results are presented as mean ± SD from three independent experiments

human PBMC = experiment: SP dependent cytokine and chemokine production by PBMC, multiplex assay; type: cell-based; conditions: SP 10 µM, 24 h
Procedure: as §1
Concentrations of pro-inflammatory cytokines and chemokines in supernatants of human PBMC were measured using human Cytokine/Chemokine Magnetic Bead Panel—Premixed 30 Plex, HCYTMAG-60K-PX30 (Millipore, Billerica, MA, USA) as recommended by the manufacturers.
Fig. 5 SP dependent up regulation of cytokine and chemokine production by human PBMC* is inhibited by aprepitant. *Freshly isolated PBMC from normal donors were incubated for 24 h with SP and/or Aprepitant (10 µM each) as indicated. Control cultures were either left untreated of incubated with DMSO (vehicle for aprepitant). Pro-inflammatory markers were measured in supernatants using MILLIPORE Human Cytokine/Chemokine Magnetic Bead Panel.

## CCCC(CCC)C(=O)O [Valproic Acid]
[1]; in vivo
  therapeutic range (total): The therapeutic range for valproic acid (total) is 50–125 µg/mL

## CCC[C@@H]1C[C@@H](C(=O)N[C@@H]([C@H]2O[C@H](SC)[C@H](O)[C@@H](O)[C@H]2O)[C@H](C)Cl)N(C)C1 [Clindamycin]
[2]
  PB %: Clindamycin (95 %)

## O=C1NC(=O)C(c2ccccc2)(c2ccccc2)N1 [Phenytoin]
[1]; in vivo
  clinically effective serum trough concentration: The clinically effective serum trough concentration is usually 40 to 80 µmol/L.

## O=C1Nc2ccc(Cl)cc2[C@@](C#CC2CC2)(C(F)(F)F)O1 [Efavirenz]
HIV
  Plasma concentrations that appear to suppress HIV replication: Plasma concentrations above 2 mg/L appear to suppress HIV replication
5-HT2A receptor
  Ki: 2.2 µM
5-HT2C receptor
  action at 5-HT2C receptor: ligand
Serotonin reuptake
  serotonin reuptake inhibition: 50%
Dopamine reuptake
  dopamine reuptake inhibition: 75%
[3]
  VMAT2 inhibition: 60%
GABAA receptor
  action at GABAA receptor: positive allosteric modulator

## CCCCNC(=O)NS(=O)(=O)c1ccc(C)cc1 [Tolbutamide]
[4]
  IC50: 4.1 µM

## NS(=O)(=O)c1cc(C(=O)O)c(NCc2ccco2)cc1Cl [Furosemide]
[2]
  PB %: Furosemide (91–99 %)

## substance P (RPKPQQFFGLM; ends and bridges not checked; UniProt P20366 58-68, looked up) [SP, substance P, ligand of its preferring receptor NK1R]
[5]; SP treated, 7 days, five experiments, control 14.7 (11.1)
  percentage of PD-1 positive CD4 cells, median (spread): 38.4 (60.6) %
[5]; incubation of PBMC with SP, 6–8 days, p = 0.03
  PD-1 expression by CD4 T-cells: increased PD-1 expression
[6]
  release of sCD163: fast release
Human PBMC
  production of G-CSF, IL-6, IL-8, TNFα and MIP-1α: upregulated
  production of MCP-1: increased production

## CN1C(=O)CN=C(c2ccccc2)c2cc(Cl)ccc21 [Diazepam]
[1]; Table 1 footnote, no reference given
  target concentrations: < 1 µg/mL
[2]
  PB %: Diazepam+ (98.5 %)
